{"source": "patent US5807874A", "about": "“Trisbenzimidazoles useful as topoisomerase I inhibitors” (Rutgers, The State University of New Jersey, priority 1995, dated 1998)", "key": {"[1]": {"test_system": "calf thymus topoisomerase I", "test": "Topoisomerase I-mediated DNA cleavage assay (calf thymus topoisomerase I)", "format": "biochemical", "settings": "for Topo I-mediated DNA cleavage (REC, Relative Effective Concentration): concentration relative to Hoechst 33342 (arbitrarily 1) producing the same cleavage on plasmid DNA, calf thymus topoisomerase I; for potency as topoisomerase I inhibitor (in words): compared with Hoechst 33342 or with each other", "description": "DNA topoisomerase I was purified from calf thymus gland as reported previously by B. D. Halligan et al., J. Biol. Chem. 260, 2475 (1985). Plasmid YEpG was also purified by the alkali lysis method followed by phenol deproteination and CsCl/ethidium isopycnic centrifugation as described by T. Mariatis et al., Molecular Cloning, A Laboratory Manual, Cold Spring Harbor Labs, N.Y. (1982) at pages 149-185. The end-labeling of the plasmid was accomplished as previously described by L. F. Liu et al., J. Biol. Chem., 258, 15365 (1983). The cleavage assays were performed as previously reported by A. Y. Chen et al., Cancer Res. 53, 1332 (1993). Human topoisomerase was isolated as a recombinant fusion protein using a T7 expression system.\n^b Topoisomerase I cleavage values are reported as REC, Relative\nEffective Concentration, i.e. concentrations relative to Hoechst 33342,\nwhose value is arbitrarily assumed as 1, that are able to produce the sam\ncleavage on the plasmid DNA in the presence of calf thymus topoisomerase\nI. Cleavage is calculated from the intensity of the strongest Hoechst"}, "tumor cells": {"test_system": "tumor cells", "test": "Cytotoxicity to tumor cells (cell line not specified)", "format": "cell-based", "settings": "for cytotoxicity of 3- and 4-pyridyl versus 2-pyridyl analog (in words): relative to the 2-pyridyl derivative, 14"}, "KBV-1 cells [2]": {"test_system": "KBV-1 cells", "settings": "as reported by A. Y. Chen et al., Adv. Pharmacol. (1994); cited from earlier work"}, "[3]": {"settings": "cited from earlier work"}, "topoisomerase I": {"test_system": "topoisomerase I", "settings": "Hoechst 33342; cited from earlier work"}, "CPT-K5 [4]": {"test_system": "CPT-K5", "test": "MTT cytotoxicity assay, camptothecin-resistant CPT-K5", "format": "cell-based, human", "procedure": "(§1) The cytotoxicity was determined using the as MTT-microtiter plate tetrazolinium cytotoxicity assay (MTA) following the procedures of F. Denizot et al., J. Immunol. […] The cytotoxicity assay was performed using 96-well microtiter plates. Cells were grown in suspension at 37° C. in 5% CO2 and maintained by regular passage in RPMI medium supplemented with 10% heat inactivated fetal bovine serum, L-glutamine (2 mM), penicillin (100 U/ml), and streptomycin (0.1 mg/ml). For determination of IC50, cells were exposed continuously with varying concentrations of drug concentrations and MTT assays were performed at the end of the fourth day."}, "minor groove of DNA": {"test_system": "minor groove of DNA", "settings": "literature; cited from earlier work"}, "[5]": {"test_system": "human MDR1 (P-glycoprotein)", "test": "MDR1 (P-glycoprotein) substrate, inferred from KB 3-1 versus KB V-1 cytotoxicity", "format": "cell-based", "settings": "inferred from KB 3-1 / KB V-1 IC50 values", "procedure": "The drug sensitive human epidermoid carcinoma KB3-1 cell line (S. Aliyama et al., Somatic Cell Mol. Genet., 11, 117 (1985)) and its vinblastine-selected multidrug-resistant variant KBV-1 cells (D. W. Shen et al., Science, 32, 643 (1986)) were provided by Dr. Michael Gottesmann (National Cancer Institute, Bethesda, Md.). These cells were grown as monolayer cultures at in 5% CO2 and maintained by regular passage in Dulbecco's minimal essential medium supplemented with 10% heat inactivated fetal bovine serum. KBV-1 cells were similarly maintained except they were grown in the presence of 1 μg/ml vinblastine."}, "KBV-1 cells [6]": {"test_system": "KBV-1 cells", "test": "MTT cytotoxicity assay, multidrug-resistant KBV-1 (overexpresses MDR1)", "format": "cell-based, human", "settings": "KB 3-1 versus KB V-1", "procedure": "as §1\nThese cells were grown as monolayer cultures at in 5% CO2 and maintained by regular passage in Dulbecco's minimal essential medium supplemented with 10% heat inactivated fetal bovine serum. KBV-1 cells were similarly maintained except they were grown in the presence of 1 μg/ml vinblastine."}, "CPT-K5 [7]": {"test_system": "CPT-K5", "settings": "as reported by A. Y. Chen et al., Cancer Res., 53, 1332 (1993); cited from earlier work"}}, "note": "Entries after “also recorded” stand apart in the source; their conditions may differ."}
{"compound": "N#Cc1ccc2[nH]c(-c3ccc4[nH]cnc4c3)nc2c1", "note": "[Compound 19, 5-Cyano-2-(benzimidazol-5'-yl)benzimidazole]", "values": [{"measurement": "Topo I-mediated DNA cleavage (REC, Relative Effective Concentration)", "setting": "[1]", "value": 1000}]}
{"compound": "CCCc1ccc2[nH]c(-c3ccc4[nH]c(-c5ccc6[nH]cnc6c5)nc4c3)nc2c1", "note": "[Compound 12, 5-Propyl-2-[2'-(benzimidazol-5\"-yl)benzimidazol-5'-yl]benzimidazole]", "values": [{"measurement": "potency as topoisomerase I inhibitor (in words)", "setting": "[1]", "value": "much less active than either 10, 11, or 13"}, {"measurement": "Topo I-mediated DNA cleavage (REC, Relative Effective Concentration)", "setting": "[1]", "value": 100}, {"measurement": "cytotoxicity to tumor cells (in words, general)", "setting": "tumor cells", "value": "weak cytotoxicity"}]}
{"compound": "c1ccc(-c2ccc3[nH]c(-c4ccc5[nH]c(-c6ccc7[nH]cnc7c6)nc5c4)nc3c2)nc1", "note": "[Compound 14, 5-(2-Pyridyl)-2-[2'-(benzimidazol-5\"-yl)benzimidazol-5'-yl]benzimidazole]", "values": [{"measurement": "Topo I-mediated DNA cleavage (REC, Relative Effective Concentration)", "setting": "[1]", "value": 3.3}, {"measurement": "antifungal activity", "setting": "Antifungal activity", "value": "exhibits antifungal activity"}]}
{"compound": "c1cc(-c2ccc3[nH]c(-c4ccc5[nH]c(-c6ccc7[nH]cnc7c6)nc5c4)nc3c2)ccn1", "note": "[Compound 16, 5-(4-Pyridyl)-2-[2'-(benzimidazol-5\"-yl)benzimidazol-5'-yl]benzimidazole]", "values": [{"measurement": "potency as topoisomerase I inhibitor (in words)", "setting": "[1]", "value": "somewhat more active than the 2-pyridyl derivative, 14"}, {"measurement": "Topo I-mediated DNA cleavage (REC, Relative Effective Concentration)", "setting": "[1]", "value": 2}, {"measurement": "cytotoxicity of 3- and 4-pyridyl versus 2-pyridyl analog (in words)", "setting": "tumor cells", "value": "somewhat more active than the 2-pyridyl derivative, 14"}]}
{"compound": "c1ccc2[nH]c(-c3ccc4[nH]c(-c5ccc6[nH]cnc6c5)nc4c3)nc2c1", "note": "[Compound 10, 2-[2'-(Benzimidazol-5\"-yl)benzimidazol-5'-yl]benzimidazole]", "values": [{"measurement": "Topo I-mediated DNA cleavage (REC, Relative Effective Concentration)", "setting": "[1]", "value": 1.1}]}
{"compound": "CCOc1ccc(-c2nc3cc(-c4nc5cc(N6CCN(C)CC6)ccc5[nH]4)ccc3[nH]2)cc1", "note": "[Hoechst 33342, 2'-(4-ethoxyphenyl)-5-(4-methyl-1-piperazinyl)-2,5'-bi-1H-benzimidazole]", "values": [{"measurement": "IC50 difference, KB 3-1 as compared to KB V-1 cells (literature)", "setting": "KBV-1 cells [2]", "value": "approximately two-orders of magnitude"}, {"measurement": "protonation at physiological pH", "setting": "[3]", "value": "extensively protonated at physiological pH"}, {"measurement": "topoisomerase I inhibition (literature)", "setting": "topoisomerase I", "value": "inhibitor of topoisomerase I; also recorded: traps the reversible cleavable complex derived from DNA and topoisomerase I"}, {"measurement": "effect against camptothecin-resistant CPT-K5 cells (in words)", "setting": "CPT-K5 [4]", "value": "effective against camptothecin-resistant CPT-K5 cells"}, {"measurement": "binding to DNA", "setting": "minor groove of DNA", "value": "binds to the minor groove of DNA"}]}
{"compound": "N#Cc1ccc2[nH]c(-c3ccc4[nH]c(-c5ccc6[nH]cnc6c5)nc4c3)nc2c1", "note": "[Compound 11, 5-Cyano-2-[2'-(benzimidazol-5\"-yl)benzimidazol-5'-yl]benzimidazole]", "values": [{"measurement": "Topo I-mediated DNA cleavage (REC, Relative Effective Concentration)", "setting": "[1]", "value": 1}]}
{"compound": "c1cncc(-c2ccc3[nH]c(-c4ccc5[nH]c(-c6ccc7[nH]cnc7c6)nc5c4)nc3c2)c1", "note": "[Compound 15, 5-(3-Pyridyl)-2-[2'-(benzimidazol-5\"-yl)benzimidazol-5'-yl]benzimidazole]", "values": [{"measurement": "potency as topoisomerase I inhibitor (in words)", "setting": "[1]", "value": "somewhat more active than the 2-pyridyl derivative, 14"}, {"measurement": "Topo I-mediated DNA cleavage (REC, Relative Effective Concentration)", "setting": "[1]", "value": 2}, {"measurement": "cytotoxicity of 3- and 4-pyridyl versus 2-pyridyl analog (in words)", "setting": "tumor cells", "value": "somewhat more active than the 2-pyridyl derivative, 14"}]}
{"compound": "c1ccc(-c2ccc3[nH]c(-c4ccc5[nH]c(-c6ccc7[nH]cnc7c6)nc5c4)nc3c2)cc1", "note": "[Compound 13, 5-Phenyl-2-[2'(benzimidazol-5\"-yl)benzimidazol-5'-yl]benzimidazole]", "values": [{"measurement": "potency as topoisomerase I inhibitor (in words)", "setting": "[1]", "value": "approximately one-half as potent as Hoechst 33342"}, {"measurement": "Topo I-mediated DNA cleavage (REC, Relative Effective Concentration)", "setting": "[1]", "value": 2}, {"measurement": "substrate for human MDR1", "setting": "[5]", "value": "appears not to be a substrate for human MDR1"}, {"measurement": "effect against camptothecin-resistant CPT-K5 cells (in words)", "setting": "CPT-K5 [4]", "value": "effective against camptothecin-resistant CPT-K5 cells"}, {"measurement": "IC50 difference between KB 3-1 and KB V-1 cells (in words)", "setting": "KBV-1 cells [6]", "value": "little difference"}]}
{"compound": "CC[C@@]1(O)C(=O)OCc2c1cc1n(c2=O)Cc2cc3ccccc3nc2-1", "note": "[camptothecin]", "values": [{"measurement": "relative resistance of camptothecin", "setting": "CPT-K5 [7]", "value": "2,500 fold"}]}
